Data reported in BigSolDB 2.1.

C[C@H]1[C@H](OC(=O)CCC(=O)O)O[C@@H]2O[C@@]3(C)CC[C@H]4[C@H](C)CC[C@@H]1[C@@]24OO3
Conditions	solubility (mole fraction)
in ethanol, 283.06 K	0.0113
in ethanol, 288.14 K	0.0136
in ethanol, 293.19 K	0.0168
in ethanol, 298.24 K	0.0208
in ethanol, 303.21 K	0.0263
in ethanol, 308.16 K	0.0334
in ethanol, 313.14 K	0.0423
in ethanol, 318.22 K	0.0536
in ethanol, 323.2 K	0.0657
in ethyl acetate, 283.17 K	0.0199
in ethyl acetate, 288.17 K	0.0221
in ethyl acetate, 293.16 K	0.0246
in ethyl acetate, 298.14 K	0.0278
in ethyl acetate, 303.17 K	0.0309
in ethyl acetate, 308.14 K	0.0344
in ethyl acetate, 313.17 K	0.0382
in ethyl acetate, 318.16 K	0.0423
in ethyl acetate, 323.19 K	0.0473
in isobutanol, 283.14 K	0.00543
in isobutanol, 288.07 K	0.00698
in isobutanol, 293.14 K	0.00912
in isobutanol, 298.1 K	0.0118
in isobutanol, 303.05 K	0.0155
in isobutanol, 308.08 K	0.0196
in isobutanol, 313.07 K	0.0252
in isobutanol, 318.05 K	0.0325
in isobutanol, 323.15 K	0.0408
in isopentanol, 283.16 K	0.00573
in isopentanol, 288.17 K	0.00721
in isopentanol, 293.14 K	0.00915
in isopentanol, 298.16 K	0.0119
in isopentanol, 303.16 K	0.0151
in isopentanol, 308.14 K	0.0194
in isopentanol, 313.17 K	0.0244
in isopentanol, 318.16 K	0.031
in isopentanol, 323.16 K	0.0397
in isopropanol, 283.06 K	0.00541
in isopropanol, 288.14 K	0.00717
in isopropanol, 293.19 K	0.00965
in isopropanol, 298.24 K	0.012
in isopropanol, 303.21 K	0.016
in isopropanol, 308.16 K	0.0209
in isopropanol, 313.14 K	0.0276
in isopropanol, 318.22 K	0.0362
in isopropanol, 323.2 K	0.047
in isopropyl acetate, 283.17 K	0.0122
in isopropyl acetate, 288.19 K	0.0135
in isopropyl acetate, 293.2 K	0.0149
in isopropyl acetate, 298.14 K	0.0167
in isopropyl acetate, 303.19 K	0.0186
in isopropyl acetate, 308.16 K	0.0206
in isopropyl acetate, 313.14 K	0.0229
in isopropyl acetate, 318.14 K	0.0258
in isopropyl acetate, 323.2 K	0.029
in methyl propionate, 283.19 K	0.0207
in methyl propionate, 288.22 K	0.0232
in methyl propionate, 293.23 K	0.0258
in methyl propionate, 298.17 K	0.0286
in methyl propionate, 303.23 K	0.0318
in methyl propionate, 308.14 K	0.0355
in methyl propionate, 313.24 K	0.0395
in methyl propionate, 318.16 K	0.0442
in methyl propionate, 323.18 K	0.0497
in n-butanol, 283.14 K	0.00719
in n-butanol, 288.07 K	0.00886
in n-butanol, 293.14 K	0.0112
in n-butanol, 298.1 K	0.0143
in n-butanol, 303.05 K	0.0181
in n-butanol, 308.08 K	0.0233
in n-butanol, 313.07 K	0.0298
in n-butanol, 318.05 K	0.0379
in n-butanol, 323.15 K	0.0485
in n-butyl acetate, 283.17 K	0.012
in n-butyl acetate, 288.19 K	0.0135
in n-butyl acetate, 293.2 K	0.015
in n-butyl acetate, 298.14 K	0.0168
in n-butyl acetate, 303.19 K	0.0191
in n-butyl acetate, 308.16 K	0.0213
in n-butyl acetate, 313.14 K	0.0237
in n-butyl acetate, 318.14 K	0.0269
in n-butyl acetate, 323.2 K	0.0304
in n-pentanol, 283.23 K	0.0111
in n-pentanol, 288.23 K	0.0137
in n-pentanol, 293.29 K	0.017
in n-pentanol, 298.5 K	0.0216
in n-pentanol, 303.24 K	0.0266
in n-pentanol, 308.02 K	0.0328
in n-pentanol, 313.08 K	0.0408
in n-pentanol, 318.05 K	0.0491
in n-pentanol, 323.1 K	0.0594
in n-pentyl acetate, 283.14 K	0.00918
in n-pentyl acetate, 288.24 K	0.0104
in n-pentyl acetate, 293.3 K	0.0117
in n-pentyl acetate, 298.28 K	0.0133
in n-pentyl acetate, 303.24 K	0.0149
in n-pentyl acetate, 308.22 K	0.0168
in n-pentyl acetate, 313.13 K	0.0191
in n-pentyl acetate, 318.18 K	0.0216
in n-pentyl acetate, 323.24 K	0.0244
in n-propanol, 283.14 K	0.00832
in n-propanol, 288.07 K	0.0103
in n-propanol, 293.14 K	0.013
in n-propanol, 298.08 K	0.0163
in n-propanol, 303.02 K	0.0207
in n-propanol, 308.05 K	0.0264
in n-propanol, 313.03 K	0.034
in n-propanol, 318.05 K	0.0427
in n-propanol, 323.05 K	0.0542
in n-propyl acetate, 283.16 K	0.0159
in n-propyl acetate, 288.24 K	0.0176
in n-propyl acetate, 293.16 K	0.0194
in n-propyl acetate, 298.18 K	0.0216
in n-propyl acetate, 303.16 K	0.024
in n-propyl acetate, 308.16 K	0.0269
in n-propyl acetate, 313.18 K	0.0302
in n-propyl acetate, 318.16 K	0.0336
in n-propyl acetate, 323.16 K	0.0375
